Test [1] addresses Klenow (3′→5′ exo(−)) fragment of E. coli DNA polymerase (Escherichia coli, UniProt P00582, D355A/E357A).
Test [2] concerns the target Klenow (Escherichia coli, UniProt P00582). The test can be described thus: Label-free optical detection of Klenow binding with magnesium in the examination step (Example 1). The settings on record: Polymerase Buffer with 10 mM MgCl2; 150 nM Klenow; 100 μM dNTP; template base T.
Test [3] addresses T1, Bsu DNA polymerase large fragment / primed template nucleic acid (Bacillus subtilis, UniProt O34996).
T1 construct: 350 U/ml Bsu DNA polymerase large fragment
T1 sequence (O34996 297-880 limits assumed): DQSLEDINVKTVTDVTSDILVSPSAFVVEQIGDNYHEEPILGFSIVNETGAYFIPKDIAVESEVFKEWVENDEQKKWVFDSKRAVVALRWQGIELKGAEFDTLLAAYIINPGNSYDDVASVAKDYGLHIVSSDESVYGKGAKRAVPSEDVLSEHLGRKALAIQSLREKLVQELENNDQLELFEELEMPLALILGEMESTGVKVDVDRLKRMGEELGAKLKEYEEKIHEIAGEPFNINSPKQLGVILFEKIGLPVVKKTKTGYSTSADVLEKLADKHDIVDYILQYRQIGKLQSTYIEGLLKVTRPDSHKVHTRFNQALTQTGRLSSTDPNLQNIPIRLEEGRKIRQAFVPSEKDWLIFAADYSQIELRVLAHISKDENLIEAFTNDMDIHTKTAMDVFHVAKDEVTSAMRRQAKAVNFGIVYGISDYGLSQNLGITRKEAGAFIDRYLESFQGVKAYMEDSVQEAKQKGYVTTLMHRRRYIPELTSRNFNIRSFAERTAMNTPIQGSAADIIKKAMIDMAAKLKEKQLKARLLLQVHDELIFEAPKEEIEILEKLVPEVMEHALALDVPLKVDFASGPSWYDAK
Description: Biolayer interferometry of polymerase binding to immobilized primed template with cognate or non-cognate nucleotide, salt titration (Example 19). To be noted: for Ternary Complex Signal (Δλ, nm): dCTP (cognate); for Binary Complex Signal (Δλ, nm): dGTP (non-cognate). An excerpt:
A FORTEBIO® (Menlo Park, Calif.) OCTET® instrument employing biolayer interferometry to measure binding reactions at the surface of a fiber optic tip was used in a multiwell plate format to investigate differential stability of binary and ternary complexes. Template strands biotinylated at their 5′-ends were used to immobilize the primed template nucleic acid onto fiber optic tips functionalized with streptavidin (SA) according to standard procedures. […] Tips were first equilibrated in a Tris-buffered solution containing 30 mM Tris-HCl (pH 8.0), and 0.1 mM EDTA before commencing the cycling protocol. Independent binding reactions for the two test nucleotides (i.e., cognate and non-cognate nucleotides) were carried out in the presence of concentrations of NaCl, KCl, or potassium glutamate that varied from 50 mM to 500 mM. […] In all instances, the reaction mixture used during the examination step contained Tris-HCl (pH 8.0), 0.01% Tween-20, 100 μg/ml BSA, 2 mM NiSO4, 350 U/ml Bsu DNA polymerase large fragment; and one of the nucleotides at a concentration of 100 μM (dCTP was used as a cognate nucleotide, and dGTP was used as a non-cognate nucleotide). Following each examination step, tips were exposed to a buffer containing 30 mM Tris-HCl (pH 8.0), 500 mM KCl, 2 mM EDTA and 0.05% Tween-20 for 20 seconds to strip enzyme complexes from the primed template nucleic acid. The stripping step was followed by a 15 second exposure to examination buffer without enzyme, dNTP or divalent cations to regenerate tips for the next cycle of examination. When using a single contacting step to effect binding of polymerase and nucleotide to the primed template nucleic acid, the binding step was 45 seconds long, with binding interactions being monitored continuously. This was accomplished by contacting the primed template nucleic acid with a single solution that included the polymerase and test nucleotide. Results from interferometry monitoring were analyzed to identify formation of ternary complexes (i.e., identifying cognate nucleotide) or binary complexes (i.e., identifying non-cognate nucleotide).

[4] abbreviates: divalent cation 2.0 mM (CoCl2 1.0 mM) in Binding Buffer, 100 μM dCTP.
Where [5] appears, read: divalent cation 2.0 mM (CoCl2 1.0 mM), 100 μM dCTP.

This is an account of results in US11168364B2, “Method and system for sequencing nucleic acids” (priority 2016, dated 2021).

Like-named read-outs stand apart in the source and are kept apart here.

Chain of Klenow (3′→5′ exo(−)) fragment of E. coli DNA polymerase (P00582 324-928 D355A/E357A limits assumed): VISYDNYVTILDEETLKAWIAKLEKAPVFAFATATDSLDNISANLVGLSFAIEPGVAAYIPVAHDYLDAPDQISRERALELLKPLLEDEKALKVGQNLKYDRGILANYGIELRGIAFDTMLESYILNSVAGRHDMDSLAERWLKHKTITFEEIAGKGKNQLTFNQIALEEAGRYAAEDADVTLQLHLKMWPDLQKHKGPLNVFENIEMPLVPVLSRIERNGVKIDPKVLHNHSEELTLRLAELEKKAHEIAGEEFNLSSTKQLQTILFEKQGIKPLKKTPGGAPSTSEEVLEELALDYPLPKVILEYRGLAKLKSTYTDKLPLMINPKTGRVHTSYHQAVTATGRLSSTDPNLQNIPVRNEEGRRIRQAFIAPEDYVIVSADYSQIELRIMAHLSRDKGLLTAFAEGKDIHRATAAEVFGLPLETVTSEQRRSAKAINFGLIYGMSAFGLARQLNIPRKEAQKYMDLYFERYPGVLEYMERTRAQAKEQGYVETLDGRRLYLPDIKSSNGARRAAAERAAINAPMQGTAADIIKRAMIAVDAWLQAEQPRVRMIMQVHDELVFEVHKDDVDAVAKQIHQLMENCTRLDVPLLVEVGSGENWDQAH
Chain of Klenow (P00582 324-928): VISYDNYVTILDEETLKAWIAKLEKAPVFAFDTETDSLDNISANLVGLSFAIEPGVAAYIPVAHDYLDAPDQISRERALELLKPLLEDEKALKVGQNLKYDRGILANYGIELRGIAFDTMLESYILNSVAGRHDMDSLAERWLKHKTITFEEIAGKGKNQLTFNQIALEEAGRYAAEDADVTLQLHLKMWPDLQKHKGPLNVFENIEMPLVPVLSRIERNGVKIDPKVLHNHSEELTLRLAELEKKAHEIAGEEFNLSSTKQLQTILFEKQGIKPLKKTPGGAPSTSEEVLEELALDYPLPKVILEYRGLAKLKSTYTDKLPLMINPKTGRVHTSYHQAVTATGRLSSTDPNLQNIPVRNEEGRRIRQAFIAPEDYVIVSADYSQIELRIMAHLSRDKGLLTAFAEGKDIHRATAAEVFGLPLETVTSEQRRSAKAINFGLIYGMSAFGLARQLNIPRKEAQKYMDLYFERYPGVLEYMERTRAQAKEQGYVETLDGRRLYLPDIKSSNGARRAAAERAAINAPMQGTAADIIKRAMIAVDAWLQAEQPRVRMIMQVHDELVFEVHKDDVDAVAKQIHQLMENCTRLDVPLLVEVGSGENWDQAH

For `[Cl-].[Cl-].[Zn+2]` [Zn2+, zinc chloride], the “binding of Klenow exo(−) and dCTP to biosensor coated with ssDNA primer-template” value (“binding of Klenow exo(−) and dCTP” for short) in test [1] (setting [4]) was “transient peak”. Besides, the “nucleotide incorporation by Klenow exo(−) in the absence of Mg2+” value (“nucleotide incorporation” below) in test [1] (setting [5]) is listed as “complete nucleotide incorporation”.

In the case of manganese chloride [Mn2+], the “binding of Klenow exo(−) and dCTP” value in test [1] (setting [4]) was “flat peak”. The “nucleotide incorporation” value in test [1] (setting [5]) was “complete nucleotide incorporation”.

In the case of `[Cl][Cu][Cl]` [Cu2+, copper(II) chloride], the “binding of Klenow exo(−) and dCTP” value in test [1] was “transient peak”.

In the case of `Nc1ncnc2c1ncn2[C@H]1C[C@H](O)[C@@H](COP(=O)(O)OP(=O)(O)OP(=O)(O)O)O1` [dATP, 2′-deoxyadenosine-5′-triphosphate], the “pre-steady state rate constant” value in test [2] was determined as 0.0106.

`[Ca+2].[Cl-].[Cl-]` [Ca2+, calcium chloride]: in test [1], the “binding of Klenow exo(−) and dCTP” value is listed as “transient peak”; the “nucleotide incorporation” value is “complete nucleotide incorporation”.

For the molecule `N.N.O=S(=O)(O)O` [ammonium sulfate], in test [1] (setting [4]), the “binding of Klenow exo(−) and dCTP” value is “bound strongly”.

For the molecule `Nc1ccn([C@H]2C[C@H](O)[C@@H](COP(=O)(O)OP(=O)(O)OP(=O)(O)O)O2)c(=O)n1` [dCTP, 2′-deoxycytidine-5′-triphosphate], in test [2], the “pre-steady state rate constant” value came to 0.0084.

`N[C@@H](CCC(=O)[O-])C(=O)[O-].[K+].[K+]` [Potassium Glutamate, potassium glutamate]: the “Fold Enhancement (Ternary/Binary)” value in test [3] (Potassium glutamate 50 mM) amounted to 1.05; in test [3] (Potassium glutamate 75 mM), 1.01; in test [3] (Potassium glutamate 100 mM), 1.02; in test [3] (Potassium glutamate 125 mM) it was 1.05; in test [3] (Potassium glutamate 150 mM) it was 1.07; in test [3] (Potassium glutamate 175 mM) it was 1.08. Also, the “Fold Enhancement (Ternary/Binary)” value in test [3] (Potassium glutamate 200 mM) is given as 1.07; in test [3] (Potassium glutamate 225 mM) it was 1.11; in test [3] (Potassium glutamate 250 mM), 1.17; in test [3] (Potassium glutamate 275 mM) it was 1.22; in test [3] (Potassium glutamate 300 mM), 1.23; in test [3] (Potassium glutamate 325 mM), 1.27. Moreover, the “Fold Enhancement (Ternary/Binary)” value in test [3] (Potassium glutamate 350 mM) is 1.30; in test [3] (Potassium glutamate 375 mM), 1.32; in test [3] (Potassium glutamate 400 mM), 1.36; in test [3] (Potassium glutamate 425 mM), 1.46; in test [3] (Potassium glutamate 450 mM), 1.52; in test [3] (Potassium glutamate 475 mM), 1.56. Moreover, the “Fold Enhancement (Ternary/Binary)” value in test [3] (Potassium glutamate 500 mM) was found to be 1.60. Besides, the “Ternary Complex Signal (Δλ, nm)” value in test [3] (Potassium glutamate 50 mM) worked out at 1.67 nm; in test [3] (Potassium glutamate 75 mM) it was 1.69 nm; in test [3] (Potassium glutamate 100 mM) it was 1.67 nm; in test [3] (Potassium glutamate 125 mM), 1.65 nm; in test [3] (Potassium glutamate 150 mM), 1.62 nm; in test [3] (Potassium glutamate 175 mM), 1.56 nm. Moreover, the “Ternary Complex Signal (Δλ, nm)” value in test [3] (Potassium glutamate 200 mM) is 1.51 nm; in test [3] (Potassium glutamate 225 mM) it was 1.53 nm; in test [3] (Potassium glutamate 250 mM), 1.48 nm; in test [3] (Potassium glutamate 275 mM), 1.52 nm; in test [3] (Potassium glutamate 300 mM) it was 1.50 nm; in test [3] (Potassium glutamate 325 mM), 1.46 nm. In addition, the “Ternary Complex Signal (Δλ, nm)” value amounted to 1.39 nm in test [3] (Potassium glutamate 350 mM); 1.36 nm in test [3] (Potassium glutamate 375 mM); 1.36 nm in test [3] (Potassium glutamate 400 mM); 1.33 nm in test [3] (Potassium glutamate 425 mM); 1.31 nm in test [3] (Potassium glutamate 450 mM); 1.28 nm in test [3] (Potassium glutamate 475 mM). Besides, the “Ternary Complex Signal (Δλ, nm)” value in test [3] (Potassium glutamate 500 mM) came out at 1.28 nm. For the same molecule, the “Binary Complex Signal (Δλ, nm)” value in test [3] (Potassium glutamate 50 mM) turned out to be 1.59 nm; in test [3] (Potassium glutamate 75 mM) it was 1.68 nm; in test [3] (Potassium glutamate 100 mM), 1.64 nm; in test [3] (Potassium glutamate 125 mM), 1.57 nm; in test [3] (Potassium glutamate 150 mM) it was 1.51 nm; in test [3] (Potassium glutamate 175 mM), 1.44 nm. Also, the “Binary Complex Signal (Δλ, nm)” value in test [3] (Potassium glutamate 200 mM) was found to be 1.40 nm; in test [3] (Potassium glutamate 225 mM), 1.38 nm; in test [3] (Potassium glutamate 250 mM) it was 1.27 nm; in test [3] (Potassium glutamate 275 mM), 1.24 nm; in test [3] (Potassium glutamate 300 mM) it was 1.23 nm; in test [3] (Potassium glutamate 325 mM), 1.15 nm. For the same molecule, the “Binary Complex Signal (Δλ, nm)” value in test [3] (Potassium glutamate 350 mM) is on record as 1.07 nm; in test [3] (Potassium glutamate 375 mM) it was 1.03 nm; in test [3] (Potassium glutamate 400 mM), 0.99 nm; in test [3] (Potassium glutamate 425 mM), 0.91 nm; in test [3] (Potassium glutamate 450 mM) it was 0.86 nm; in test [3] (Potassium glutamate 475 mM) it was 0.82 nm. Further, the “Binary Complex Signal (Δλ, nm)” value in test [3] (Potassium glutamate 500 mM) is 0.80 nm.

`[Cl][Co][Cl]` [Co2+, cobalt chloride]: the “binding of Klenow exo(−) and dCTP” value in test [1] (setting [4]) was “transient peak”. For the same molecule, the “nucleotide incorporation” value in test [1] (setting [5]) is “complete nucleotide incorporation”.

For `[Ba+2].[Cl-].[Cl-]` [BaCl2, barium chloride], the “binding of Klenow exo(−) and dCTP” value in test [1] (setting [4]) was “bound strongly”.
